Source: patent publication US20100256104A1, “NOVEL AMIDE COMPOUNDS” (ASTRAZENECA R&D, priority 2009, published 2010)

target: T1, recombinant human GR (Homo sapiens, UniProt P04150); assay: Human Glucocorticoid Receptor (GR) Assay, fluorescence polarization competition with GS Red tracer; conditions: 2 hours at room temperature, 100% control 10 μM Dexamethasone, XLfit model 205, read-out: Inhibition of GR binding, IC50
T1 construct: purchased Panvera/Invitrogen P2812 (kit P2893)
T1 sequence (P04150 1-777): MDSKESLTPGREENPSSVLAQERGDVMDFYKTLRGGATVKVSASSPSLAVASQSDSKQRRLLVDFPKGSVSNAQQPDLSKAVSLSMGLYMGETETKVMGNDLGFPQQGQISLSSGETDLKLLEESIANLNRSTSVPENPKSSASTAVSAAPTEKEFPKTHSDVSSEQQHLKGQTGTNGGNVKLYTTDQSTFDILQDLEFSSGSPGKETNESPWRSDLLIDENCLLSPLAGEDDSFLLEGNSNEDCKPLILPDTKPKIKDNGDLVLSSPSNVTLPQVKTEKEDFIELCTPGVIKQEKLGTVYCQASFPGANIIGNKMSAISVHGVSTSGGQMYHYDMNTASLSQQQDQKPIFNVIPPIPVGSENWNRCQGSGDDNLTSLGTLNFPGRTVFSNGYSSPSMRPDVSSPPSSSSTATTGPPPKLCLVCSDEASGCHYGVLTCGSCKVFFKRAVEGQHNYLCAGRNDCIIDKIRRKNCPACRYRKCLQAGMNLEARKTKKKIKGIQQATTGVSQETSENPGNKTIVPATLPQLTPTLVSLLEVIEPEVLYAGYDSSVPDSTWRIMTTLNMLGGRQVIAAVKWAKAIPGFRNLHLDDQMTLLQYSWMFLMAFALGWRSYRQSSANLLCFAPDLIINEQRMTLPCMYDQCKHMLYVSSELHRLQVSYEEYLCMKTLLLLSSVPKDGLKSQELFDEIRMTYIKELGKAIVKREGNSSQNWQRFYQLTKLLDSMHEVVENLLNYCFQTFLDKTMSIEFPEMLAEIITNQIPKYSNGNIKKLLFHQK
How it was run: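 Fluorescence polarization competition: recombinant human GR with GS Red tracer, stabilizing peptide and DTT in potassium phosphate/sodium molybdate/EDTA buffer. 2 h in dark at room temperature, read at ex 530/em 590 nm. Controls: DMSO (0%) and 10 μM dexamethasone (100%).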

Compound | IC50
CCC(=O)O[C@]1(C(=O)SCC#N)CC[C@H]2[C@@H]3CCC4=Cc5c(cnn5-c5cccc(C(=O)NCC(N)=O)c5)C[C@]4(C)[C@H]3[C@@H](O)C[C@@]21C [Example 11, (1R,3aS,3bS,10aR,10bS,11S,12aS)-7-{3-[(2-Amino-2-oxoethyl)carbamoyl]phenyl}-1-{[(cyanomethyl)sulfanyl]carbonyl}-11-hydroxy-10a,12a-dimethyl-1,2,3,3a,3b,4,5,7,10,10a,10b,11,12,12a-tetradecahydrocyclopenta[5,6]naphtho[1,2-f]indazol-1-yl propanoate] | 3.7 nM
CCC(=O)O[C@]1(C(=O)SCF)CC[C@H]2[C@@H]3CCC4=Cc5c(cnn5-c5cccc(C(=O)NCCSC)c5)C[C@]4(C)[C@H]3[C@@H](O)C[C@@]21C [Example 7, (1R,3aS,3bS,10aR,10bS,11S,12aS)-1-{[(Fluoromethyl)sulfanyl]carbonyl}-11-hydroxy-10a,12a-dimethyl-7-(3-{[2-(methylsulfanyl)ethyl]carbamoyl}phenyl)-1,2,3,3a,3b,4,5,7,10,10a,10b,11,12,12a-tetradecahydrocyclopenta[5,6]naphtho[1,2-f]indazol-1-yl propanoate] | 1.4 nM
C[C@]12Cc3cnn(-c4cccc(C(=O)NCc5cccnc5)c4)c3C=C1CC[C@@H]1[C@@H]2[C@@H](O)C[C@@]2(C)[C@H]1CC[C@]2(OC(=O)c1cocn1)C(=O)SCF [Example 39, (1R,3aS,3bS,10aR, 10bS,11S,12aS)-1-{[(fluoromethyl)sulfanyl]carbonyl}-11-hydroxy-10a,12a-dimethyl-7-{3-[(pyridin-3-ylmethyl)carbamoyl]-phenyl}-1,2,3,3a,3b, 4,5,7,10,10a,- 10b,11,12,12a-tetradecahydro-cyclopenta[5,6]naphtho [1,2-f]indazol-1-yl 1,3-oxazole-4-carboxylate] | 2.4 nM
COCCNC(=O)c1cccc(-n2ncc3c2C=C2CC[C@@H]4[C@H]([C@@H](O)C[C@@]5(C)[C@H]4CC[C@]5(OC(=O)C4CC4)C(=O)SCC#N)[C@@]2(C)C3)c1 [Example 4, (1R,3aS,3bS,10aR,10bS,11S,12aS)-1-{[(Cyanomethyl)sulfanyl]carbonyl}-11-hydroxy-7-{3-[(2-methoxyethyl)carbamoyl]phenyl}-10a,12a-dimethyl-1,2,3,3a,3b,4,5,7,10,10a,10b,11,12,12a-tetradecahydrocyclopenta[5,6]naphtho[1,2-f]indazol-1-yl cyclopropanecarboxylate] | 0.91 nM
COCC(=O)O[C@]1(C(=O)SCF)[C@H](C)C[C@H]2[C@@H]3CCC4=Cc5c(cnn5-c5cccc(C(=O)N6CCC[C@@H]6C(N)=O)c5)C[C@]4(C)[C@@]3(F)[C@@H](O)C[C@@]21C [Example 47, (1R,2R,3aS,3bS, 10aS,10bR,11S,12aS)-7-(3-{[(2R)-2-carbamoyl-pyrrolidin-1-yl]carbonyl}phenyl)-10b-fluoro-1-{[(fluoromethyl)sulfanyl]carbonyl}-11-hydroxy-2,10a,12a-trimethyl-1,2,3,3a,3b,4,5,7,10, 10a,10b,11,12,12a-tetradecahydrocyclo-penta[5,6]naphtho [1,2-f]indazol-1-yl methoxyacetate] | 7.5 nM
CCC(=O)O[C@]1(C(=O)SCCO)CC[C@H]2[C@@H]3CCC4=Cc5c(cnn5-c5cccc(C(=O)N6CCC[C@@H]6C(N)=O)c5)C[C@]4(C)[C@@]3(F)[C@@H](O)C[C@@]21C [Example 58, (1R,3aS,3bS,10aS, 10bR,11S,12aS)-7-(3-{[(2R)-2-carbamoyl-pyrrolidin-1-yl]carbonyl}phenyl)-10b-fluoro-11-hydroxy-1-{[(2-hydroxyethyl)sulfanyl]carbonyl}-10a,12a-dimethyl-1,2,3,3a,3b,4,5,7,10, 10a,10b,11,12,12a-tetradecahydrocyclo-penta[5,6]naphtho [1,2-f]indazol-1-yl propanoate] | 6.9 nM
CCC(=O)O[C@]1(C(=O)SCF)[C@H](C)C[C@H]2[C@@H]3CCC4=Cc5c(cnn5-c5cccc(C(=O)N[C@@H](C)C(N)=O)c5)C[C@]4(C)[C@@]3(F)[C@@H](O)C[C@@]21C [Example 25, (1R,2R,3aS,3bS, 10aS,10bR,11S,12aS)-7-(3-{[(1S)-2-amino-1-methyl-2-oxoethyl]carbamoyl}phenyl)-10b-fluoro-1-{[(fluoromethyl)-sulfanyl]carbonyl}-11-hydroxy-2,10a,12a-trimethyl-1,2,3,3a,3b,4,5,7,10, 10a,10b,11,12,12a-tetradecahydrocyclo-penta[5,6]naphtho [1,2-f]indazol-1-yl propanoate] | 2.8 nM
C[C@]12Cc3cnn(-c4cccc(C(=O)N5CCC[C@@H]5C(N)=O)c4)c3C=C1CC[C@@H]1[C@@H]2[C@@H](O)C[C@@]2(C)[C@H]1CC[C@]2(OC(=O)c1cocn1)C(=O)SCC#N [Example 49, (1R,3aS,3bS,10aR, 10bS,11S,12aS)-7-(3-{[(2R)-2-carbamoyl-pyrrolidin-1-yl]carbonyl}phenyl)-1-{[(cyanomethyl)sulfanyl]carbonyl}-11-hydroxy-10a,12a-dimethyl-1,2,3,3a,3b,4,5,7,10, 10a,10b,11,12,12a-tetradecahydrocyclo-penta[5,6]naphtho [1,2-f]indazol-1-yl 1,3-oxazole-4-carboxylate] | 12 nM
CCC(=O)O[C@]1(C(=O)SCC#N)CC[C@H]2[C@@H]3CCC4=Cc5c(cnn5-c5cccc(C(=O)N6CCC[C@@H]6C(N)=O)c5)C[C@]4(C)[C@H]3[C@@H](O)C[C@@]21C [Example 14, (1R,3aS,3bS,10aR,10bS,11S,12aS)-7-(3-{[(2R)-2-Carbamoylpyrrolidin-1-yl]carbonyl}phenyl)-1-{[(cyanomethyl)sulfanyl]carbonyl}-11-hydroxy-10a,12a-dimethyl-1,2,3,3a,3b,4,5,7,10,10a,10b,11,12,12a-tetradecahydrocyclopenta[5,6]naphtho[1,2-f]indazol-1-yl propanoate] | 6 nM
COCC(=O)O[C@]1(C(=O)SCF)[C@H](C)C[C@H]2[C@@H]3CCC4=Cc5c(cnn5-c5cccc(C(=O)NCC(N)=O)c5)C[C@]4(C)[C@@]3(F)[C@@H](O)C[C@@]21C [Example 45, (1R,2R,3aS,3bS, 10aS,10bR,11S,12aS)-7-{3-[(2-amino-2-oxoethyl)carbamoyl]phenyl}-10b-fluoro-1-{[(fluoromethyl)sulfanyl]carbonyl}-11-hydroxy-2,10a,12a-trimethyl-1,2,3,3a,3b,4,5,7,10, 10a,10b,11,12,12a-tetradecahydrocyclo-penta[5,6]naphtho [1,2-f]indazol-1-yl methoxyacetate] | 5.3 nM
